These results are taken from ChEMBL document CHEMBL1201862, “PubChem BioAssay data set” (2004).

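Values below derive from 48-hour exposures of cells grown in 96-well plates, with endpoints linearly interpolated between the two concentrations bracketing the appropriate inhibition level. At the GI50, growth is halved.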 Activity calls are given as the source filed them. Cut-off read from the data, not from the text of the source: active = GI50 up to about 1.1 µM and inactive = higher. Where only a bound is given, the exact number is not on record here.

Test systems include UACC-257; NCI/ADR-RES; IGROV-1; OVCAR-4; HCT-15; A498; DU-145; K562; SK-MEL-28; LOX IMVI; ACHN; T47D; TK-10; EKVX; MOLT-4; Malme-3M; BT-549; MDA-N; HCC 2998.
Experiment in all cases: NCI-60 cell line screen, 48 h

As to `CN(Cc1cc(Cl)cc(Cl)c1)CC(C(=O)c1ccccc1)c1ccccc1` (stereo not drawn), the GI50 in the test with UACC-257 was 2.56 µM (inactive); in the test on NCI/ADR-RES, 1.57 µM (inactive); with IGROV-1, 26.7 µM (inactive); in the test with OVCAR-4, 2.07 µM (inactive); in the test with HCT-15, 0.368 µM; in the test with A498 it was 14.5 µM (inactive). For the same molecule, the GI50 with DU-145 was 4.69 µM (inactive); in the test with K562, 0.962 µM (active); with SK-MEL-28, 2.9 µM (inactive); with LOX IMVI, 1.65 µM (inactive); with ACHN, 0.445 µM (active); with T47D, 2.02 µM (inactive). The GI50 in the test on TK-10 was 6.37 µM (inactive); in the test with EKVX, 16.7 µM (inactive); with MOLT-4, 0.684 µM (active); in the test on Malme-3M it was 8 µM (inactive); in the test on BT-549 it was 3.06 µM (inactive).

With `C=CCC(SC)C1=C(C)C(=O)c2ccccc21` (stereo not drawn), the GI50 with UACC-257 was > 10 µM (inactive); with IGROV-1, > 10 µM (inactive); with HCT-15, above 10 µM; with MDA-N it was > 10 µM (inactive); in the test on A498 it was > 10 µM (inactive); in the test with DU-145, > 10 µM (inactive). For the same molecule, the GI50 in the test with HCC 2998, in the test on K562, in the test on SK-MEL-28, in the test on LOX IMVI, in the test on ACHN and in the test on T47D was > 10 µM (inactive) each time. The GI50 in the test on TK-10, in the test on EKVX, with MOLT-4, in the test with Malme-3M and with BT-549 was > 10 µM (inactive) in each case.

As for `O=C(/C=C\c1ccccc1)Oc1ccc(/C=C2\CCC/C(=C\c3ccc(OC(=O)/C=C\c4ccccc4)cc3)C2=O)cc1`, the GI50 in the test on UACC-257 is > 100 µM (inactive); in the test with NCI/ADR-RES, > 100 µM (inactive); in the test on OVCAR-4, > 100 µM (inactive); in the test with HCT-15, above 100 µM; in the test with MDA-N, > 100 µM (inactive); in the test with DU-145, > 100 µM (inactive). Moreover, the GI50 in the test on HCC 2998, with SK-MEL-28, in the test with LOX IMVI, in the test with ACHN, in the test on T47D and in the test on TK-10 was > 100 µM (inactive) each time. In addition, the GI50 in the test with EKVX, in the test with MOLT-4 and with BT-549 was > 100 µM (inactive) throughout.

As for `O=C(O)c1nc2ccccc2nc1Nc1ccc(F)cc1`, the GI50 was 29.6 µM (inactive) in the test with UACC-257; 36.8 µM (inactive) with NCI/ADR-RES; 37.4 µM (inactive) in the test with IGROV-1; 41.8 µM (inactive) in the test with OVCAR-4; 26.7 µM with HCT-15; 40 µM (inactive) in the test on A498. Besides, the GI50 in the test with DU-145 is 33.7 µM (inactive); with HCC 2998 it was 32.1 µM (inactive); in the test on K562 it was 32.1 µM (inactive); with SK-MEL-28, 36.4 µM (inactive); in the test on LOX IMVI, 34.1 µM (inactive); in the test with ACHN, 26.9 µM (inactive). Further, the GI50 in the test on T47D was 28.4 µM (inactive); with TK-10, 34.5 µM (inactive); with EKVX it was 36.4 µM (inactive); in the test with MOLT-4 it was 28.3 µM (inactive); in the test with Malme-3M, 37.9 µM (inactive); with BT-549 it was 44.3 µM (inactive).

Consider `Cc1cc2c(c(/C=N/Cc3ccccc3)c1)OC1(C=C2)Oc2ccccc2C(=O)N1C` (stereo not drawn), for which the GI50 was 25.8 µM (inactive) with UACC-257; 20.2 µM (inactive) in the test on NCI/ADR-RES; 22 µM (inactive) in the test on IGROV-1; 29.2 µM (inactive) with OVCAR-4; 19.6 µM with HCT-15; 23.9 µM (inactive) in the test on A498. The GI50 was 25.4 µM (inactive) in the test on DU-145; 27.1 µM (inactive) with HCC 2998; 14.1 µM (inactive) with K562; 29.8 µM (inactive) with SK-MEL-28; 17.4 µM (inactive) with LOX IMVI; 20.7 µM (inactive) in the test with ACHN. Moreover, the GI50 with T47D is 10.4 µM (inactive); with TK-10 it was 26 µM (inactive); in the test with EKVX it was 15.3 µM (inactive); in the test on MOLT-4 it was 4.5 µM (inactive); in the test with BT-549 it was 23.5 µM (inactive).

`COc1cc(C2SC(=N)Nc3c2c(C)nn3C(=O)Cc2ccccc2)ccc1O` (stereo not drawn): the GI50 in the test with UACC-257 was > 100 µM (inactive); in the test on IGROV-1, > 100 µM (inactive); in the test on HCT-15, above 100 µM; in the test with MDA-N it was > 100 µM (inactive); in the test with A498 it was > 100 µM (inactive); with DU-145 it was > 100 µM (inactive). Besides, the GI50 with HCC 2998, with K562, in the test with SK-MEL-28, in the test with LOX IMVI, in the test on ACHN and in the test on T47D was > 100 µM (inactive) each time. Also, the GI50 with TK-10, in the test on EKVX, in the test on MOLT-4, in the test with Malme-3M and with BT-549 was > 100 µM (inactive) throughout.

In the case of `N#Cc1c(-c2ccccc2)c(/C=N/c2cccc(C(F)(F)F)c2)c(=O)n2c1[nH]c1ccccc12`, the GI50 is 32.5 µM (inactive) with UACC-257; 25.1 µM (inactive) in the test with NCI/ADR-RES; 29.2 µM (inactive) in the test on IGROV-1; 51.1 µM (inactive) in the test with OVCAR-4; 33 µM in the test on HCT-15; 28 µM (inactive) in the test with MDA-N. The GI50 in the test with A498 is 34.4 µM (inactive); in the test on HCC 2998 it was 30.8 µM (inactive); in the test with SK-MEL-28 it was 59 µM (inactive); in the test with LOX IMVI, 32.6 µM (inactive); with ACHN, 30.1 µM (inactive); in the test on T47D, 35.2 µM (inactive). The GI50 in the test on TK-10 was 32.9 µM (inactive); in the test on EKVX, 19.1 µM (inactive); in the test on Malme-3M, 42.3 µM (inactive); with BT-549 it was 48 µM (inactive).

For the molecule `CC1(C)CC(=O)C2=C(C1)NC1=C(C2)C(=O)CC(C)(C)C1`, the GI50 was > 100 µM (inactive) with UACC-257; > 100 µM (inactive) with NCI/ADR-RES; > 100 µM (inactive) with IGROV-1; > 100 µM (inactive) with OVCAR-4; above 100 µM in the test on HCT-15; > 100 µM (inactive) in the test on MDA-N. The GI50 in the test on A498, in the test with DU-145, in the test with HCC 2998, in the test with K562, with SK-MEL-28 and with LOX IMVI was > 100 µM (inactive) throughout. The GI50 with ACHN, in the test with TK-10, in the test on EKVX, with MOLT-4, in the test on Malme-3M and with BT-549 was > 100 µM (inactive) throughout.

Turning to `Cc1cccc(C)c1NC(=O)/C=C/c1ccccc1`, the GI50 in the test with UACC-257 was > 100 µM (inactive); in the test with OVCAR-4 it was > 100 µM (inactive); in the test with HCT-15 it was above 100 µM; in the test on MDA-N, > 100 µM (inactive); in the test with A498 it was > 100 µM (inactive); in the test with DU-145, > 100 µM (inactive). Further, the GI50 in the test on HCC 2998 is > 100 µM (inactive); in the test on K562, > 100 µM (inactive); in the test with SK-MEL-28, > 100 µM (inactive); with LOX IMVI it was > 100 µM (inactive); in the test with ACHN, 15.4 µM (inactive); in the test with T47D, > 100 µM (inactive). Further, the GI50 was > 100 µM (inactive) with TK-10; 67 µM (inactive) with EKVX; > 100 µM (inactive) with MOLT-4; 51.2 µM (inactive) with Malme-3M; > 100 µM (inactive) with BT-549.

`COC(=O)[C@H]1NC(=O)CCSSC1(C)C`: the GI50 in the test on UACC-257 was > 100 µM (inactive); with NCI/ADR-RES it was > 100 µM (inactive); in the test with IGROV-1, > 100 µM (inactive); in the test with OVCAR-4 it was > 100 µM (inactive); in the test with HCT-15, above 100 µM; with A498, > 100 µM (inactive). The GI50 with DU-145, with K562, with SK-MEL-28, with LOX IMVI, with ACHN and in the test on T47D was > 100 µM (inactive) throughout. The GI50 with TK-10, in the test with EKVX, with MOLT-4, in the test with Malme-3M and in the test with BT-549 was > 100 µM (inactive) each time.

For `Cc1nc(NC(C)(CO)CO)nc(N/N=C/c2ccc(Cl)cc2)c1C(=O)Nc1ccc(Cl)cc1`, the GI50 was > 100 µM (inactive) with UACC-257; > 100 µM (inactive) in the test on NCI/ADR-RES; > 100 µM (inactive) with IGROV-1; > 100 µM (inactive) with OVCAR-4; above 100 µM in the test on HCT-15; > 100 µM (inactive) in the test on MDA-N. Moreover, the GI50 with DU-145 was > 100 µM (inactive); in the test with HCC 2998, > 100 µM (inactive); with K562 it was > 100 µM (inactive); in the test on SK-MEL-28 it was > 100 µM (inactive); in the test with LOX IMVI, > 100 µM (inactive); in the test with ACHN, 47.9 µM (inactive). Also, the GI50 was > 100 µM (inactive) in the test on T47D; > 100 µM (inactive) in the test with TK-10; > 100 µM (inactive) with EKVX; 65.5 µM (inactive) in the test on MOLT-4; > 100 µM (inactive) in the test on Malme-3M; > 100 µM (inactive) in the test on BT-549.

As for `O=C(Nc1ccccc1)c1cc2ccccc2c(/N=N/c2ccc([N+](=O)[O-])cc2)c1O`, the GI50 with UACC-257 is > 100 µM (inactive); in the test with NCI/ADR-RES it was > 100 µM (inactive); in the test on IGROV-1, > 100 µM (inactive); in the test on OVCAR-4, > 100 µM (inactive); with HCT-15 it was above 100 µM; in the test on DU-145 it was > 100 µM (inactive). Besides, the GI50 is 35.6 µM (inactive) in the test on K562; > 100 µM (inactive) in the test on SK-MEL-28; > 100 µM (inactive) in the test on LOX IMVI; > 100 µM (inactive) in the test on ACHN; > 100 µM (inactive) with T47D; 56.1 µM (inactive) in the test with TK-10. Further, the GI50 in the test with EKVX is > 100 µM (inactive); with MOLT-4, 17 µM (inactive); in the test on Malme-3M, > 100 µM (inactive); with BT-549, 44.3 µM (inactive).
